{"source": "ChEMBL document CHEMBL3867463", "about": "“Cytotoxic lanostanes from fruits of Garcinia wallichii Choisy (Guttiferae)” (Bioorg Med Chem Lett, 2016)", "key": {"[1]": {"experiment": "Cytotoxicity against human A549 cells by SRB method", "type": "functional", "details": "read-out: ED50 (the source's name)"}, "[2]": {"experiment": "Cytotoxicity against human colon cancer cells by SRB method", "type": "functional", "details": "Cancer cell lines, read-out: ED50 (the source's name)"}, "[3]": {"experiment": "Cytotoxicity against rat ASK cells by SRB method", "type": "functional", "details": "read-out: ED50 (the source's name)"}, "[4]": {"experiment": "Cytotoxicity against human KB cells by SRB method", "type": "functional", "details": "read-out: ED50 (the source's name)"}, "[5]": {"experiment": "Cytotoxicity against human HEK293 cells by SRB method", "type": "toxicity, cell-based", "details": "read-out: ED50 (the source's name)"}, "[6]": {"experiment": "Cytotoxicity against human MCF7 cells by SRB method", "type": "functional", "details": "read-out: ED50 (the source's name)"}, "[7]": {"experiment": "Cytotoxicity against human HT-29 cells by SRB method", "type": "functional", "details": "read-out: ED50 (the source's name)"}, "[8]": {"experiment": "Cytotoxicity against mouse P388 cells by SRB method", "type": "functional", "details": "read-out: ED50 (the source's name)"}}}
{"molecule": "C/C(=C\\CC[C@@H](C)[C@H]1CC[C@@]2(C)[C@@H]3CC[C@H]4C(C)(C)C(=O)CC[C@]4(C)[C@@]3(O)CC[C@]12C)C(=O)O", "values": [{"measurement": "EC50", "setting": "[1]", "result": "> 50", "unit": "µM"}, {"measurement": "EC50", "setting": "[2]", "result": "> 50", "unit": "µM"}, {"measurement": "EC50", "setting": "[3]", "result": "> 50", "unit": "µM"}, {"measurement": "EC50", "setting": "[4]", "result": "> 50", "unit": "µM"}, {"measurement": "CC50", "setting": "[5]", "result": "> 50", "unit": "µM"}, {"measurement": "EC50", "setting": "[6]", "result": "> 50", "unit": "µM"}, {"measurement": "EC50", "setting": "[7]", "result": "> 50", "unit": "µM"}, {"measurement": "EC50", "setting": "[8]", "result": "> 50", "unit": "µM"}]}
{"molecule": "C/C(=C\\C=C\\[C@@H](C)[C@H]1CC[C@@]2(C)[C@@H]3CC[C@H]4C(C)(C)C(=O)CC[C@]4(C)[C@@]3(O)CC[C@]12C)C(=O)O", "values": [{"measurement": "EC50", "setting": "[1]", "result": "> 50", "unit": "µM"}, {"measurement": "EC50", "setting": "[2]", "result": "> 50", "unit": "µM"}, {"measurement": "EC50", "setting": "[3]", "result": "> 50", "unit": "µM"}, {"measurement": "EC50", "setting": "[4]", "result": "> 50", "unit": "µM"}, {"measurement": "CC50", "setting": "[5]", "result": "> 50", "unit": "µM"}, {"measurement": "EC50", "setting": "[6]", "result": "> 50", "unit": "µM"}, {"measurement": "EC50", "setting": "[7]", "result": "> 50", "unit": "µM"}, {"measurement": "EC50", "setting": "[8]", "result": "> 50", "unit": "µM"}]}
{"molecule": "Cc1c2ccncc2c(C)c2c1[nH]c1ccccc12", "note": "[ELLIPTECINE]", "values": [{"measurement": "EC50", "setting": "[1]", "result": 1.26, "unit": "µM"}, {"measurement": "EC50", "setting": "[2]", "result": 2.19, "unit": "µM"}, {"measurement": "EC50", "setting": "[3]", "result": 2.31, "unit": "µM"}, {"measurement": "EC50", "setting": "[4]", "result": 2.03, "unit": "µM"}, {"measurement": "CC50", "setting": "[5]", "result": 2.03, "unit": "µM"}, {"measurement": "EC50", "setting": "[6]", "result": 2.11, "unit": "µM"}, {"measurement": "EC50", "setting": "[7]", "result": 2.43, "unit": "µM"}, {"measurement": "EC50", "setting": "[8]", "result": 2.15, "unit": "µM"}]}
{"molecule": "COC(=O)/C(C)=C/C=C/[C@@H](C)[C@H]1CC[C@@]2(C)[C@@H]3CC[C@H]4C(C)(C)[C@]5(O)CC[C@]4(CO5)[C@@]3(O)CC[C@]12C", "values": [{"measurement": "EC50", "setting": "[1]", "result": "> 50", "unit": "µM"}, {"measurement": "EC50", "setting": "[2]", "result": "> 50", "unit": "µM"}, {"measurement": "EC50", "setting": "[3]", "result": "> 50", "unit": "µM"}, {"measurement": "EC50", "setting": "[4]", "result": "> 50", "unit": "µM"}, {"measurement": "CC50", "setting": "[5]", "result": "> 50", "unit": "µM"}, {"measurement": "EC50", "setting": "[6]", "result": "> 50", "unit": "µM"}, {"measurement": "EC50", "setting": "[7]", "result": "> 50", "unit": "µM"}, {"measurement": "EC50", "setting": "[8]", "result": "> 50", "unit": "µM"}]}
{"molecule": "C/C(=C\\C=C\\[C@@H](C)[C@H]1CC[C@@]2(C)[C@@H]3CC[C@H]4C(C)(C)[C@]5(O)CC[C@]4(CO5)[C@@]3(O)CC[C@]12C)C(=O)O", "values": [{"measurement": "EC50", "setting": "[1]", "result": 5.69, "unit": "µM"}, {"measurement": "EC50", "setting": "[2]", "result": 4.73, "unit": "µM"}, {"measurement": "EC50", "setting": "[3]", "result": 7.63, "unit": "µM"}, {"measurement": "EC50", "setting": "[4]", "result": 4.79, "unit": "µM"}, {"measurement": "CC50", "setting": "[5]", "result": 6.89, "unit": "µM"}, {"measurement": "EC50", "setting": "[6]", "result": 6.19, "unit": "µM"}, {"measurement": "EC50", "setting": "[7]", "result": 5.39, "unit": "µM"}, {"measurement": "EC50", "setting": "[8]", "result": 3.91, "unit": "µM"}]}
{"molecule": "C/C(=C\\CC[C@@H](C)[C@H]1CC[C@@]2(C)[C@@H]3CC[C@H]4C(C)(C)[C@@H](O)CC[C@]4(C)[C@@]3(O)CC[C@]12C)C(=O)O", "values": [{"measurement": "EC50", "setting": "[1]", "result": 35.1, "unit": "µM"}, {"measurement": "EC50", "setting": "[2]", "result": "> 50", "unit": "µM"}, {"measurement": "EC50", "setting": "[3]", "result": "> 50", "unit": "µM"}, {"measurement": "EC50", "setting": "[4]", "result": 29.9, "unit": "µM"}, {"measurement": "CC50", "setting": "[5]", "result": "> 50", "unit": "µM"}, {"measurement": "EC50", "setting": "[6]", "result": "> 50", "unit": "µM"}, {"measurement": "EC50", "setting": "[7]", "result": 23.7, "unit": "µM"}, {"measurement": "EC50", "setting": "[8]", "result": 24.1, "unit": "µM"}]}
{"molecule": "COC(=O)/C(C)=C/C=C/[C@@H](C)[C@H]1CC[C@@]2(C)[C@@H]3CC[C@H]4C(C)(C)C(=O)CC[C@]4(C)C3=CC[C@]12C", "values": [{"measurement": "EC50", "setting": "[1]", "result": "> 50", "unit": "µM"}, {"measurement": "EC50", "setting": "[2]", "result": "> 50", "unit": "µM"}, {"measurement": "EC50", "setting": "[3]", "result": "> 50", "unit": "µM"}, {"measurement": "EC50", "setting": "[4]", "result": "> 50", "unit": "µM"}, {"measurement": "CC50", "setting": "[5]", "result": "> 50", "unit": "µM"}, {"measurement": "EC50", "setting": "[6]", "result": "> 50", "unit": "µM"}, {"measurement": "EC50", "setting": "[7]", "result": "> 50", "unit": "µM"}, {"measurement": "EC50", "setting": "[8]", "result": "> 50", "unit": "µM"}]}
